The values that follow are results of earlier work, collected in US20050165089A1, “Compounds, compositions and methods” (priority 2003, published 2005).

The series relates to A549 cells.
Take `O=c1[nH]cc(F)c(=O)[nH]1` [5-fluorouracil]: the GI50 was 1000 nM.

Take `COc1cccc2c1C(=O)c1c(O)c3c(c(O)c1C2=O)C[C@@](O)(C(=O)CO)C[C@@H]3O[C@H]1C[C@H](N)[C@H](O)[C@H](C)O1` [doxorubicin]: the 50% growth inhibitory concentration (GI50) was 63 nM.

With `NC(=O)NO` [hydroxyurea], the 50% growth inhibitory concentration (GI50) was 500000 nM.

For the molecule `CC(=O)O[C@H]1C(=O)[C@@]2(C)[C@H]([C@H](OC(=O)c3ccccc3)[C@]3(O)C[C@H](OC(=O)[C@H](O)[C@@H](NC(=O)c4ccccc4)c4ccccc4)C(C)=C1C3(C)C)[C@]1(OC(C)=O)CO[C@@H]1C[C@@H]2O` [paclitaxel], the GI50 is 4 nM.

As a reminder, the GI50 is the concentration at which growth is held to half of that of the control.
